Literature values, collected in patent publication US20070148074A1, “Nanoparticle based stabilization of ir fluorescent dyes” (priority 2003, published 2007).

Experiments:
[1] = human body, administered intravenously

- fraction of dye in plasma that is protein-bound: ~95%
- elimination half-life [1]: 2 to 4 min
SMILES: CC1(C)C(/C=C/C=C/C=C/C=C2\N(CCCCS(=O)(=O)O)c3ccc4ccccc4c3C2(C)C)=[N+](CCCCS(=O)(=O)[O-])c2ccc3ccccc3c21 [ICG, indocyanine green]
